Data set [1] concerns the target T1, phosphorylated VEGF-R2Δ50 (FLVK-P) (Homo sapiens, UniProt P35968, DEL940-989/E990V).
T1 construct: VEGF-R2Δ50 contains residues 806-939 and 990-1171; made in house; host or cells: baculovirus/insect cells
As to the kind of experiment: VEGF-R2 coupled spectrophotometric assay, phosphorylated construct (FLVK-P). It is filed as biochemical. To be noted: for inhibition at 0.05 µM: @ 50 nM, read-out: FLVK-P percent inhibition. A digest of the protocol: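 Continuous PK/LDH-coupled spectrophotometric read (NADH loss at 340 nm) with 5–40 nM enzyme in 200 mM Hepes pH 7.5. Phosphorylated construct run at 1 mM ATP, 25 mM MgCl2, 5.1 mM poly(E4Y1); unphosphorylated at 3 mM ATP, 60 mM MgCl2 plus 2 mM MnCl2, 20 mM poly(E4Y1). Ki values derived from varied inhibitor concentrations.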

In data set [2] the test system is lung cancer cells (line MV522). As to the kind of experiment: Cancer cell proliferation (MV522) assay (MTT). Conditions: MV522. It is filed as cell-based. As for the experimental part:
The protocol for assessing cellular proliferation in cancer cells is similar to that used for assessments in HUVEC cells. Two thousand lung cancer cells (line MV522, acquired from American Tissue Cultural Collection) were seeded in growth media (RPMI1640 medium supplemented with 2 mM glutamine and 10% FBS). Cells are allowed to attach for 1 day prior to addition of test agents and/or vehicles. Cells are treated simultaneously with the same test agents used in the HUVEC assay. Cellular proliferation is quantified by MTT dye reduction assay 72 hours after exposure to test agents. The total length of the assay is 4 days vs. 5 for HUVEC cells because MV522 cells are not exposed to starvation medium.

For data set [3], the target named is T2, unphosphorylated VEGF-R2Δ50 (FLVK) (Homo sapiens, UniProt P35968, DEL940-989/E990V).
T2 construct: VEGF-R2Δ50 contains residues 806-939 and 990-1171; made in house; host or cells: baculovirus/insect cells
T2 sequence (P35968 with tags, fused parts or gaps DEL940-989/E990V limits assumed): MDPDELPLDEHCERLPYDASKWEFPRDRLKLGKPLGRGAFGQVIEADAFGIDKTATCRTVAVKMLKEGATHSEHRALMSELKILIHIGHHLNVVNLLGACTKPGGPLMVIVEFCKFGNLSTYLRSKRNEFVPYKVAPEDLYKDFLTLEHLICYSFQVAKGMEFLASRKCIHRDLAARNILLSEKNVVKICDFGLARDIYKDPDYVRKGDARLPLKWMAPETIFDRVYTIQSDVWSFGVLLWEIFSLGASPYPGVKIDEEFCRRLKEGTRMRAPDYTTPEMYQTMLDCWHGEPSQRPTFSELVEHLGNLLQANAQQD
As to the kind of experiment: VEGF-R2 coupled spectrophotometric assay, unphosphorylated construct (FLVK).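 Further: Baculovirus-expressed cytosolic kinase domain, ADP formation linked via pyruvate kinase and lactate dehydrogenase to NADH oxidation, read as falling absorbance at 340 nm.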 It is filed as biochemical.

Data set [4] deals with human umbilical vein endothelial cells (HUVEC). As to the kind of experiment: HUVEC proliferation assay (VEGF-stimulated, MTT). The class given is cell-based. To be noted: Homo sapiens, read-out: HUVEC IC50. As for the experimental part: This assay determines the ability of a test compound to inhibit the growth factor-stimulated proliferation of human umbilical vein endothelial cells (“HUVEC”). HUVEC cells (passage 3-4, Clonetics, Corp.) were thawed into EGM2 culture medium (Clonetics Corp) in T75 flasks. Fresh EGM2 medium was added to the flasks 24 hours later. Four or five days later, cells were exposed to another culture medium (F12K medium supplemented with 10% fetal bovine serum (FBS), 60 μg/ml endothelial cell growth supplement (ECGS), and 0.1 mg/ml heparin). Exponentially-growing HUVEC cells were used in experiments thereafter. Ten to twelve thousand HUVEC cells were plated in 96-well dishes in 100 μl of rich, culture medium (described above). The cells were allowed to attach for 24 hours in this medium. The medium was then removed by aspiration and 105 μl of starvation media (F12K+1% FBS) was added to each well. After 24 hours, 15 μl of test agent dissolved in 1% DMSO in starvation medium or this vehicle alone was added into each treatment well; the final DMSO concentration was 0.1%. One hour later, 30 μl of VEGF (30 ng/ml) in starvation media was added to all wells except those containing untreated controls; the final VEGF concentration was 6 ng/ml. Cellular proliferation was quantified 72 hours later by MTT dye reduction, at which time cells were exposed for 4 hours MTT (Promega Corp.). Dye reduction was stopped by addition of a stop solution (Promega Corp.) and absorbance at 595 λ was determined on a 96-well spectrophotometer plate reader.

The target in another data set is T3, LCK tyrosine kinase (Homo sapiens, UniProt P06239, C224D/P223M).
T3 construct: starting from amino acid residue 223 to the end of the protein at residue 509; made in house; host or cells: insect cells
T3 sequence (P06239 223-509 P223M/C224D): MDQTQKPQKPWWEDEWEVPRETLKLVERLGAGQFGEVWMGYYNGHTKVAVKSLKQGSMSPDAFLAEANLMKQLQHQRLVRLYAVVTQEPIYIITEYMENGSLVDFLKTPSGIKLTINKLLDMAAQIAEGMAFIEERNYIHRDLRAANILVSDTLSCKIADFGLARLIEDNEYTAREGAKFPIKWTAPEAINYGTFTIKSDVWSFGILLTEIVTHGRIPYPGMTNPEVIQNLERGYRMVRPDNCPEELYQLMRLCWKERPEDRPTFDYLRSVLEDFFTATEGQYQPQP
As to the kind of experiment: LCK spectrophotometric assay.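 Further: recombinant LCK kinase activity on poly(E4Y1), ADP formation coupled through PK/LDH to NADH oxidation, followed as absorbance loss at 340 nm.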 The class given is biochemical. Conditions: @ 1 μM; read-out: LCK-P percent inhibition.

Counter-ions that a name gives are not always drawn. Like-named read-outs stand apart in the source and are kept apart here.

T1 sequence (P35968 with tags, fused parts or gaps DEL940-989/E990V limits assumed): as the sequence (P35968 with tags, fused parts or gaps DEL940-989/E990V limits assumed) above

For `COc1cc(NC(=O)c2cccc(CSc3nc(NC#N)n[nH]3)c2)cc(OC)c1OC` [Example C-1, 3-[(5-Cyanoamino-2H-[1,2,4]triazol-3-yl)sulfanylmethyl]-N-(3,4,5-trimethoxyphenyl)benzamide], the melting point was > 165 °C (dec.).

On to `Cc1ccc2cc(NC(=O)c3cccc(SCc4cnccn4)c3)ccc2n1` [Example D-2, N-(2-Methylquinolin-6-yl)-3-[(pyrazin-2-yl)methylsulfanyl]benzamide], for which the melting point was in the range of 102 to 105 °C. Also, the inhibitory constant (Ki) in data set [1] is 1640 nM.

As to `Cc1c(Br)cc(NC(=O)c2cccc(CSc3cnccn3)c2)cc1Br` [Example A-8, N-(3,5-Dibromo-4-methylphenyl)-3-[(pyrazin-2-yl)sulfanylmethyl]benzamide], the half-maximal inhibitory concentration (IC50) in data set [2] was > 10000 nM; in data set [4] (HUVEC), 740 nM. Further, the inhibition constant Ki in data set [3] came to 1.9 nM; in data set [1], 3.36 nM.

`Cc1ccc2cc(NC(=O)c3cccc(SCc4cc(-c5ccccc5)n[nH]4)c3)ccc2n1` [Example F-2] yielded a melting point of 99 to 101 °C. In addition, in data set [2], the IC50 was > 10000 nM. In addition, the half-maximal inhibitory concentration (IC50) in data set [4] (HUVEC) is 650 nM. This molecule also displayed an inhibitory constant (Ki) in data set [1] of 14.7 nM.

`O=C(Nc1ccc(N2CCNCC2)c(C(F)(F)F)c1)c1ccc(F)c(OCc2cncc3ccccc23)c1` (as salt: hydrochloride) [Example R-15, 4-Fluoro-N-(4-piperazin-1-yl-3-trifluoromethyl-phenyl)-3-(isoquinolin-4-ylmethoxy)-benzamide]: the melting point lay within 103 to 107 °C.

The molecule `Cc1ccc2cc(NC(=O)c3cccc(CSc4cnccn4)c3)ccc2n1` [Example A-6, N-(2-Methylquinolin-6-yl)-3-[(pyrazin-2-yl)sulfanylmethyl]benzamide] displayed a melting point of 133 to 135 °C. This molecule also gave an inhibition constant (Ki) in data set [1] of 1050 nM.

`COc1cc(NC(=O)c2cccc(CSc3nc(NC(C)=O)n[nH]3)c2)cc(OC)c1OC` [Example C-3, N-(3,4,5-Trimethoxyphenyl)-3-[(5-acetylamino-2H-[1,2,4]triazol-3-yl)sulfanylmethyl]benzamide] returned a melting point of 196 to 201 °C.

For the molecule `CC1(C)OC(C)(C)c2cc(NC(=O)c3cccc(OCc4cncc5ccccc45)c3)ccc21` [Example R-10, 3-(Isoquinolin-4-ylmethoxy)-N-(1,1,3,3-tetramethyl-1,3-dihydroisobenzofuran-5-yl)-benzamide], the half-maximal inhibitory concentration (IC50) is > 10000 nM in data set [2] and 28 nM in data set [4] (HUVEC). In addition, the inhibition constant Ki came to 6.9 nM in data set [3] and 12.1 nM in data set [1]. For the same molecule, the inhibition at 1 µM on LCK tyrosine kinase was 23%.

Consider `COC(=O)Nc1n[nH]c(SCc2cccc(C(=O)Nc3cc(OC)c(OC)c(OC)c3)c2)n1` [Example C-2, 3-[(5-(Methoxycarbonylamino)-2H-[1,2,4]triazol-3-yl)sulfanylmethyl]-N-(3,4,5-Trimethoxyphenyl)benzamide], for which the melting point is > 150 °C (dec.).

`Cc1cc(NC(=O)c2cccc(OCc3cnc(NNC(=O)OC(C)(C)C)c4ccccc34)c2)ccc1C(C)C` [Example P-1, N′-{4-[3-(4-isopropyl-3-methyl-phenylcarbamoyl)-phenoxymethyl]-isoquinolin-1-yl}-hydrazinecarboxylic acid tert-butyl ester] returned a melting point of 125 to 129 °C. The inhibition at 0.05 µM in data set [1] is 4%.

`Cc1cc(NC(=O)c2cccc(OCc3ccc(N)nc3)c2)ccc1C(C)C` [Example L-1, 3-(6-Aminopyridin-3-yl)methoxy-N-(4-Isopropyl-3-methyl-phenyl)-benzamide] returned a melting point of 78 to 81 °C.

Turning to `COc1cc(NC(=O)c2cccc(CSc3cnccn3)c2)cc(OC)c1OC` [Example A-1, N-(3,4,5-Trimethoxyphenyl)-3-[(pyrazin-2-yl)sulfanylmethyl]benzamide], the melting point lay within 112 to 119 °C. The molecule also yielded an inhibition constant (Ki) in data set [1] of 785 nM.

In turn, `O=C(Nc1ccc(N2CCNCC2)c(C(F)(F)F)c1)c1ccc(F)c(OCc2cnc3ccccc3c2)c1` (as salt: hydrochloride) [Example R-17, 4-Fluoro-N-(4-piperazin-1-yl-3-trifluoromethyl-phenyl)-3-(quinolin-3-ylmethoxy)-benzamide] yielded a melting point of 76 to 78 °C.

Molecule `Cc1ccc2cc(NC(=O)c3cccc(OCc4ccc(N)nc4)c3)ccc2n1` [Example M-1, 3-(6-Aminopyridin-3-yl)methoxy-N-(2-methyl-quinolin-6-yl)-benzamide] showed a melting point of 189 to 192 °C. Moreover, in data set [1], the affinity corresponds to a Ki of 52 nM.

Consider `Cc1cc(C)c2cc(NC(=O)c3cccc(OCc4cncc5ccccc45)c3)ccc2n1` [Example R-5, N-(2,4-Dimethylquinolin-6-yl)-3-(isoquinolin-4-ylmethoxy)-benzamide], for which the values for the IC50 in data set [2] and in data set [4] (HUVEC) were 10000 nM and 89 nM, respectively. The Ki amounted to 1.7 nM in data set [3] and 11.2 nM in data set [1].

With `O=C(Nc1cccc(OC(F)(F)F)c1)c1cccc(OCc2cncc3ccccc23)c1` [Example R-4, 3-(Isoquinolin-4-ylmethoxy)-N-(3-trifluoromethoxy-phenyl)-benzamide], the 50% inhibitory concentration (IC50) in data set [2] was determined as 9900 nM; in data set [4] (HUVEC), 88 nM. In addition, the Ki in data set [3] is 2.4 nM; in data set [1], 9.93 nM. Moreover, the inhibition at 1 µM at LCK tyrosine kinase worked out at 28%.

Regarding `O=C(Nc1cccc(OCc2cccnc2)c1)N1CCCC1` [Example Y-1, 1-[3-(pyridin-3-ylmethoxy)phenylcarbamoyl]pyrrolidine], the melting point was in the range of 138 to 140 °C. In addition, in data set [3] (@ 50 nM, read-out: FLVK percent inhibition), the inhibition at 0.05 µM came to 6%. For the same molecule, the half-inhibitory concentration (IC50) in data set [4] (VEGF-stimulated HUVEC proliferation) was > 700 nM.

In the case of `COc1cccc(/C=N/Nc2ncc(COc3cccc(C(=O)Nc4ccc(C(C)C)c(C)c4)c3)c3ccccc23)c1` [Example Q-1, N-(4-Isopropyl-3-methyl-phenyl)-3-{1-[N′-(3-methoxy-benzylidene)-hydrazino]-isoquinolin-4-ylmethoxy}-benzamide], the melting point lay in the range of 125 to 131 °C. In addition, in data set [4] (HUVEC), the IC50 lay within 100 to 300 nM. Further, the inhibition at 0.05 µM in data set [1] stood at 17%.

Consider `COc1cc(NC(=O)c2cccc(CSc3ncnc4[nH]ncc34)c2)cc(C(F)(F)F)c1` [Example B-16, 3-[(1H-Pyrazolo[3,4-d]pyrimidin-4-yl)sulfanylmethyl]-N(3-trifluoromethyl-5-methoxyphenyl)-benzamide], for which the figures for the half-maximal inhibitory concentration (IC50) in data set [2] and in data set [4] (HUVEC) were > 10000 nM and 370 nM, respectively. For the same molecule, the inhibition at 1 µM at LCK tyrosine kinase came out at 9%. Also, in data set [1], the inhibitory constant (Ki) worked out at 15 nM.

`CC(=O)Oc1ccc(C(=O)Nc2cccc(OCc3cccnc3)c2)cc1C(C)(C)C` [Example X-2, 4-Acetoxy-3-t-butyl-N-[3-(pyridin-3-ylmethoxy)phenyl]-benzamide] showed a melting point of 58 to 62 °C. The inhibition constant (Ki) in data set [3] (unphosphorylated VEGF-R2 construct) came to 9.1 nM.

In the case of `O=C(Nc1cccc(OCc2cccnc2)c1)N1CCOCC1` (as salt: salt) [Example Y-2, 4-[3-(pyridin-3-ylmethoxy)phenylcarbamoyl]morpholine], the melting point is 58 to 62 °C.

For the molecule `O=C(Nc1ccc2ncccc2c1)c1cccc(CSc2ncnc3[nH]ncc23)c1` [Example B-3, N-(Quinolin-6-yl)-3-[(1H-pyrazolo[3,4-d]pyrimidin-4-yl)sulfanylmethyl]benzamide], the melting point is 236 to 240 °C (dec.). Also, the inhibitory constant (Ki) in data set [1] was 406 nM.

These data come from US6635641B2 (Agouron Pharmaceuticals, Inc., priority 2000, dated 2003).
